Test results taken from ChEMBL document CHEMBL1151209, “New quassinoids, javanicolides C and D and javanicosides B--F, from seeds of Brucea javanica” (J Nat Prod, 2004).
≈ marks a conversion by molar mass, not a printed value.

The compounds below were run on P388 (assay: Cytotoxicity against mouse P388 cells after 48 hrs by MTT assay). Settings: P388, 48 h.
Format: functional, cell-based
Compound COC(=O)[C@@]12OC[C@]34[C@H]([C@@H](O)[C@@H]1O)[C@@]1(C)C[C@@H](O)[C@@H](O)[C@@H](C)[C@@H]1C[C@H]3OC(=O)[C@H](OC(=O)C=C(C)C)[C@@H]24 [JAVANICOLIDE C] has an IC50 greater than 100 µg/mL. COC(=O)[C@@]12OC[C@]34[C@H]([C@@H](O)[C@@H]1O)[C@@]1(C)[C@H](O)[C@@H](O)C=C(C)[C@@H]1C[C@H]3OC(=O)[C@H](OC(=O)/C=C(\C)C(C)(C)O)[C@@H]24 [JAVANICOLIDE D] gave an IC50 of 18 µg/mL (≈ 31.8 µM). With COC(=O)[C@@]12OC[C@]34[C@H]([C@@H](O)[C@@H]1O)[C@@]1(C)C(=O)C(O[C@@H]5O[C@H](CO)[C@@H](O)[C@H](O)[C@H]5O)=C[C@@H](C)[C@@H]1C[C@H]3OC(=O)[C@H](OC(=O)CC(C)C)[C@@H]24 [JAVANICOSIDE B] the IC50 was 5.6 µg/mL (≈ 8.18 µM). COC(=O)[C@@]12OC[C@@]34[C@@H](CC5=C(C)C(=O)C(O[C@@H]6O[C@H](CO)[C@@H](O)[C@H](O)[C@H]6O)=C[C@]5(C)[C@H]3[C@@H](O)[C@@H]1O)OC(=O)[C@H](OC(=O)C=C(C)C)[C@@H]24 [JAVANICOSIDE C] showed an IC50 of 18 µg/mL (≈ 26.4 µM). For CC/C(=C\C(=O)O[C@H]1C(=O)O[C@@H]2C[C@H]3[C@H](C)C(=O)C(O[C@@H]4O[C@H](CO)[C@@H](O)[C@H](O)[C@H]4O)=C[C@]3(C)[C@H]3[C@@H](O)[C@H](O)[C@@]4(C(=O)OC)OC[C@]32[C@@H]14)C(C)(C)O [JAVANICOSIDE D], the IC50 was 89 µg/mL (≈ 120 µM). In the case of COC(=O)[C@@]12OC[C@]34[C@H]([C@@H](O)[C@@H]1O)[C@@]1(C)C=C(O[C@@H]5O[C@H](CO)[C@@H](O)[C@H](O)[C@H]5O)C(=O)[C@@H](C)[C@@H]1C[C@H]3OC(=O)[C@H](OC(=O)CC(C)C(C)(C)OC(C)=O)[C@@H]24 (some centres not stated) [JAVANICOSIDE E], the IC50 is reported as 16 µg/mL (≈ 20.8 µM). CC/C(C)=C/C(=O)O[C@H]1C(=O)O[C@@H]2C[C@H]3[C@H](C)C(=O)C(O[C@@H]4O[C@H](CO)[C@@H](O)[C@H](O)[C@H]4O)=C[C@]3(C)[C@H]3[C@@H](O)[C@H](O)[C@@]4(C(=O)OC)OC[C@]32[C@@H]14 [JAVANICOSIDE F] gave an IC50 of 50 µg/mL (≈ 71.8 µM).
